According to ChEMBL document CHEMBL4359815, “Design, synthesis, antitumor activities and biological studies of novel diaryl substituted fused heterocycles as dual ligands targeting tubulin and katanin” (Eur J Med Chem, 2019):
Calls of active or inactive are those of the source. The rule behind the calls is not given here.

Legend:
HUVEC [1] = assay: Cytotoxicity against HUVEC after 48 hrs by MTT assay; format: cell-based; details: Homo sapiens
A549 [2] = assay: Induction of apoptosis in human A549 cells assessed as viable cells at 0.5 uM after 48 hrs by Annexin-V/propidium iodide staining based flow cytometric method (reference value: 92.05%); format: functional; details: A549, 48 h, read-out: Activity
HUVEC [3] = assay: Antiangiogenic activity in HUVEC assessed as inhibition of capillary like tube formation in matrigel at 0.4 uM after 24 hrs by matrigel-based inverted microscopic analysis relative to control; format: functional; details: Homo sapiens
HUVEC [4] = assay: Antiangiogenic activity in HUVEC assessed as inhibition of capillary like tube formation in matrigel at 0.2 uM after 24 hrs by matrigel-based inverted microscopic analysis; format: functional, cell-based; details: Homo sapiens
A549 [5] = assay: Inhibition of colony formation in human A549 cells after 48 hrs by crystal violet staining based assay; format: functional, cell-based
A2780 [6] = assay: Antiproliferative activity against human A2780 cells assessed as reduction in cell viability after 48 hrs by MTT assay; format: functional, cell-based; details: A2780, 48 h
HeLa = assay: Antiproliferative activity against human HeLa cells assessed as reduction in cell viability after 48 hrs by MTT assay; format: functional, cell-based
HCT-116 = assay: Antiproliferative activity against human HCT116 cells assessed as reduction in cell viability after 48 hrs by MTT assay; format: functional, cell-based; details: HCT-116, 48 h
A549 [7] = assay: Antiproliferative activity against human A549 cells assessed as reduction in cell viability after 48 hrs by MTT assay; format: functional, cell-based; details: A549, 48 h
Tubulin (Homo sapiens) = Tubulin (Homo sapiens) (UniProt P68371+Q9H4B7+P0DPH7+P68366+Q13509+Q71U36+P04350+Q3ZCM7+P07437+P68363+Q9BQE3+Q6PEY2+Q13885+Q9BVA1+Q9BUF5); assay: Induction of tubulin depolymerization in human HeLa cells after 24 hrs by DAPI staining based fluorescence microscopic analysis; format: cell-based
[8] = Binding affinity to human katanin by MST assay
[9] = biological target: Katanin p60 ATPase-containing subunit A1 (Homo sapiens) (UniProt O75449); assay: Inhibition of Katanin p60 degradation in human A549 cells preincubated for 15 mins followed by compound addition in presence of cycloheximide by immunoblotting analysis; format: cell-based
Katanin p60 ATPase-containing subunit A1 (Homo sapiens), sequence (O75449 whole entry): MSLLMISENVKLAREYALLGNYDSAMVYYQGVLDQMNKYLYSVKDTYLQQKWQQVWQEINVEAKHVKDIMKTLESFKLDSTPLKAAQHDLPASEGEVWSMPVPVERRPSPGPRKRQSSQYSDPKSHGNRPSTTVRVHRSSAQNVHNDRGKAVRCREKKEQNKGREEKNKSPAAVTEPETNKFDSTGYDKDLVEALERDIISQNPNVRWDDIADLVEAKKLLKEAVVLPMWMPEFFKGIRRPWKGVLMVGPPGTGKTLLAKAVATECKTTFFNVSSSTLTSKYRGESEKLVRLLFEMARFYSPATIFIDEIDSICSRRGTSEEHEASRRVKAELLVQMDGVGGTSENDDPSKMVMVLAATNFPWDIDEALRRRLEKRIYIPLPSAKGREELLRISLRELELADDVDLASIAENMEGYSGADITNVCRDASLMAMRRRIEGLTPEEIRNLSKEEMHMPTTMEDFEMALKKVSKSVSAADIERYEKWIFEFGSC

A549 [10] = assay: Antiproliferative activity against human A549 cells harboring control siRNA after 48 hrs by MTT assay; format: functional, cell-based; details: A549, 48 h
A549 [11] = assay: Antiproliferative activity against human A549 cells harboring katanin siRNA after 48 hrs by MTT assay; format: functional, cell-based; details: A549, 48 h
A549 [12] = assay: Cell cycle arrest in human A549 cells assessed as accumulation of cells at G2/M phase at 0.5 to 2 uM after 24 hrs by RNase A/propidium iodide staining-based flow cytometric analysis; format: functional
A549 [13] = assay: Cell cycle arrest in human A549 cells after 24 hrs by RNase A/propidium iodide staining-based flow cytometric analysis; format: functional
A549 [14] = assay: Cell cycle arrest in human A549 cells assessed as increase in cyclin B1 expression at 0.5 to 2 uM after 24 hrs by immunoblotting analysis; format: functional, cell-based
A549 [15] = assay: Cell cycle arrest in human A549 cells assessed as increase in p21 expression at 0.5 to 2 uM after 24 hrs by immunoblotting analysis; format: functional, cell-based
A549 [16] = assay: Cell cycle arrest in human A549 cells assessed as increase in histone 3 phosphorylation at 0.5 to 2 uM after 24 hrs by immunoblotting analysis; format: functional, cell-based
Tubulin (Sus scrofa) = Tubulin (Sus scrofa) (UniProt P02554+P02550); assay: (§1) Inhibition of pig brain tubulin polymerization measured every 1 min for 25 mins by spectrophotometric method
Tubulin (Sus scrofa), sequence (P02550 whole entry, looked up): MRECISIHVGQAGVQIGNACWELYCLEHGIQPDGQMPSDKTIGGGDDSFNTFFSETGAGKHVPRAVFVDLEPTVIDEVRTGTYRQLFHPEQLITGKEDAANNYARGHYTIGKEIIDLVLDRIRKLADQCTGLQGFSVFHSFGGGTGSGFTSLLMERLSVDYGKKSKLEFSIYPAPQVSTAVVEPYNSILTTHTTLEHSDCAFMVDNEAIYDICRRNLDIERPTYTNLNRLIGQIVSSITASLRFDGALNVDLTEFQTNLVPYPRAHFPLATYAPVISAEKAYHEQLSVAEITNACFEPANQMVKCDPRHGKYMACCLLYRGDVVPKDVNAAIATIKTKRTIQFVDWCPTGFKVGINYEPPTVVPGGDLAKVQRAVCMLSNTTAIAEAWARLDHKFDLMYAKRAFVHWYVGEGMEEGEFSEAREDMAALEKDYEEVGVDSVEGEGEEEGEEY
Tubulin (Sus scrofa), sequence (P02554 whole entry, looked up): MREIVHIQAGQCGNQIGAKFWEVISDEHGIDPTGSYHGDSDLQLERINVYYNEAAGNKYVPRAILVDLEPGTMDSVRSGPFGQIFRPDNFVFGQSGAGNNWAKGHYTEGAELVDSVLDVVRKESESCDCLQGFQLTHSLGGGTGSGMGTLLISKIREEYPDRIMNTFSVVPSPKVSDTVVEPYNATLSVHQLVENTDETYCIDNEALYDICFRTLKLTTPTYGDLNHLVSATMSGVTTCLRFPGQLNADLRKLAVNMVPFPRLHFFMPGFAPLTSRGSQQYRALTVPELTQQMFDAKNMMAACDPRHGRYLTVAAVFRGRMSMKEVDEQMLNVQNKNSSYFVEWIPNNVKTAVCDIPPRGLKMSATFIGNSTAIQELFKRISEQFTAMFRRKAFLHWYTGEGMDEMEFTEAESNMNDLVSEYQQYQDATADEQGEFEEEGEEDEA

Tubulin = Tubulin (Sus scrofa, UniProt P02554+P02550); assay: as §1
A549 [17] = assay: Induction of apoptosis in human A549 cells assessed as early apoptotic cells at 0.5 uM after 48 hrs by Annexin-V/propidium iodide staining based flow cytometric method (reference value: 0.51%); format: functional
A549 [18] = assay: Induction of apoptosis in human A549 cells assessed as late apoptotic cells at 0.5 uM after 48 hrs by Annexin-V/propidium iodide staining based flow cytometric method (reference value: 1.18%); format: functional
A549 [19] = assay: Induction of apoptosis in human A549 cells assessed as necrotic cells at 0.5 uM after 48 hrs by Annexin-V/propidium iodide staining based flow cytometric method (reference value: 6.26%); format: functional
A549 [20] = assay: Induction of apoptosis in human A549 cells assessed as viable cells at 1 uM after 48 hrs by Annexin-V/propidium iodide staining based flow cytometric method (reference value: 92.05%); format: functional; details: A549, 48 h, read-out: Activity
A549 [21] = assay: Induction of apoptosis in human A549 cells assessed as early apoptotic cells at 1 uM after 48 hrs by Annexin-V/propidium iodide staining based flow cytometric method (reference value: 0.51%); format: functional
A549 [22] = assay: Induction of apoptosis in human A549 cells assessed as late apoptotic cells at 1 uM after 48 hrs by Annexin-V/propidium iodide staining based flow cytometric method (reference value: 1.18%); format: functional
A549 [23] = assay: Induction of apoptosis in human A549 cells assessed as necrotic cells at 1 uM after 48 hrs by Annexin-V/propidium iodide staining based flow cytometric method (reference value: 6.26%); format: functional
A549 [24] = assay: Induction of apoptosis in human A549 cells assessed as viable cells at 2 uM after 48 hrs by Annexin-V/propidium iodide staining based flow cytometric method (reference value: 92.05%); format: functional; details: A549, 48 h, read-out: Activity
A549 [25] = assay: Induction of apoptosis in human A549 cells assessed as early apoptotic cells at 2 uM after 48 hrs by Annexin-V/propidium iodide staining based flow cytometric method (reference value: 0.51%); format: functional
A549 [26] = assay: Induction of apoptosis in human A549 cells assessed as late apoptotic cells at 2 uM after 48 hrs by Annexin-V/propidium iodide staining based flow cytometric method (reference value: 1.18%); format: functional
A549 [27] = assay: Induction of apoptosis in human A549 cells assessed as necrotic cells at 2 uM after 48 hrs by Annexin-V/propidium iodide staining based flow cytometric method (reference value: 6.26%); format: functional
A549 [28] = assay: Induction of apoptosis in human A549 cells after 48 hrs by Annexin-V/propidium iodide staining based flow cytometric method; format: functional, cell-based
A549 [29] = assay: Induction of apoptosis in human A549 cells assessed as PARP cleavage at 2 to 8 uM after 48 hrs by immunoblotting analysis; format: functional, cell-based
A549 [30] = assay: Induction of apoptosis in human A549 cells assessed as increase in Bad expression level at 2 to 8 uM after 48 hrs by immunoblotting analysis; format: functional, cell-based
A549 [31] = assay: Induction of apoptosis in human A549 cells assessed as increase in p53 expression level at 2 to 8 uM after 48 hrs by immunoblotting analysis; format: functional, cell-based
[32] = AUC (0 to 24 hrs) in ICR mouse at 50 mg/kg, ip after 0.08 to 24 hrs by HPLC-MS/MS analysis; format: ADME, organism-based; parameters: time < 24 hr, dose 50 mg/kg, route intraperitoneal; details: in vivo
[33] = AUC(0 to infinity) in ICR mouse at 50 mg/kg, ip after 0.08 to 24 hrs by HPLC-MS/MS analysis; format: ADME, organism-based; parameters: dose 50 mg/kg, time infinity, route intraperitoneal; details: in vivo
[34] = Cmax in ICR mouse at 50 mg/kg, ip after 0.08 to 24 hrs by HPLC-MS/MS analysis; format: ADME, organism-based; parameters: dose 50 mg/kg, route intraperitoneal; details: in vivo
[35] = Tmax in ICR mouse at 50 mg/kg, ip after 0.08 to 24 hrs by HPLC-MS/MS analysis; format: ADME, organism-based; details: in vivo
[36] = Half life in ICR mouse at 50 mg/kg, ip after 0.08 to 24 hrs by HPLC-MS/MS analysis; format: ADME, organism-based; details: in vivo
[37] = Apparent volume of distribution in ICR mouse at 50 mg/kg, ip after 0.08 to 24 hrs by HPLC-MS/MS analysis; format: ADME, organism-based; details: in vivo
[38] = Apparent oral clearance ICR mouse at 50 mg/kg, ip after 0.08 to 24 hrs by HPLC-MS/MS analysis; format: ADME, organism-based; details: in vivo
[39] = MRT in ICR mouse at 50 mg/kg, ip after 0.08 to 24 hrs by HPLC-MS/MS analysis; format: ADME, organism-based; details: in vivo
A2780 [40] = assay: Antitumour activity against human A2780 cells xenografted in Balb/c mouse assessed as reduction in tumour volume at 25 to 50 mg/kg, ip administered every other day by caliper method; format: functional, organism-based
[41] = Toxicity in Balb/c mouse xenografted with human A2780 cells assessed effect on body weight at 25 to 50 mg/kg, ip administered every other day; format: organism-based; details: in vivo
A2780 [42] = assay: Antitumour activity against human A2780 cells xenografted in Balb/c mouse assessed as reduction in tumour weight at 25 to 50 mg/kg, ip administered every other day; format: functional, organism-based

For `COc1ccc(-c2cc3c([nH]c(=O)n3-c3cc(OC)c(OC)c(OC)c3)c(C(N)=O)n2)cc1O`, the IC50 (HUVEC [1]) was > 10000 nM, the viability at 0.5 µM (A549 [2]) was 79.7% and the inhibition at 0.4 µM (HUVEC [3]) was 100%. For the same compound, the inhibition (HUVEC [4]) was “Active”, the inhibition (A549 [5]) was “Dose-dependent effect” and the IC50 (A2780 [6]) was 210 nM. For the same compound, the IC50 (HeLa) was 250 nM, the IC50 (HCT-116) was 170 nM and the IC50 (A549 [7]) was 400 nM. For the same compound, the Activity (Tubulin (Homo sapiens)) was “Dose-dependent effect”, the Kd [8] was 12700 nM and the inhibition [9] was “inactive”. For the same compound, the IC50 (A549 [10]) was 340 nM, the IC50 (A549 [11]) was 1480 nM and the inhibition (A549 [12]) was “Active”. For the same compound, the inhibition (A549 [13]) was “Dose-dependent effect”, the Activity (A549 [14]) was “Active” and the Activity (A549 [15]) was “Active”. The Activity (A549 [16]) was “Active”, the inhibition (Tubulin (Sus scrofa)) was “Dose-dependent effect” and the IC50 (Tubulin) was 8400 nM. It also gave an Activity (A549 [17]) of 7.51%, an Activity (A549 [18]) of 5.43% and an Activity (A549 [19]) of 7.34%. The viability at 1 µM (A549 [20]) was 65.1%, the Activity (A549 [21]) was 15.85% and the Activity (A549 [22]) was 8.69%. For the same compound, the Activity (A549 [23]) was 10.33%, the viability at 2 µM (A549 [24]) was 42.2% and the Activity (A549 [25]) was 36.48%. For the same compound, the Activity (A549 [26]) was 14.08%, the Activity (A549 [27]) was 7.2% and the Activity (A549 [28]) was “Dose-dependent effect”. For the same compound, the Activity (A549 [29]) was “Active”, the Activity (A549 [30]) was “Active” and the Activity (A549 [31]) was “Active”. For the same compound, the AUC(0-t) at 24 h [32] was 2630 ng·h/mL, the AUC(0-inf) [33] was 2950 ng·h/mL and the Cmax [34] was 580 ng/mL. The Tmax [35] was 0.23 h, the half-life [36] was 9.36 h and the Vd/F [37] was 4625.07 mL. For the same compound, the CL/F [38] was 5.73 mL/min, the MRT [39] was 8.39 h and the Activity (A2780 [40]) was “Active”. For the same compound, the Activity [41] was “Non-Toxic” and the Activity (A2780 [42]) was “Active”.
